Laboratory results as given in US20040204499A1, “Preparation for breast duct fluid collection” (priority 2000, published 2004).

Experiment: Clinical trial of breast ductal lavage with topical, subcutaneous and/or intraductal anesthesia; patient-recorded pain and post-procedure notes
Type: in vivo, human
Experimental: A clinical trial was conducted at several different clinical sites by several different physician practitioners. Sometimes the procedures were conducted by practitioners using topical application of anesthetic, subcutaneous anesthesia injection, sometimes using intraductal anesthesia infusion and sometimes all three. […] Apply EMLATM cream (topical anesthetic cream) to the nipple and areola as described in the package insert. […] Dekeratinize the nipple using gauze and a small amount of Omniprep® paste (dekeratinizing agent) or […] gel. Clean the nipple and areola with alcohol and gauze. […] Before attempting ductal catheterization, identify the ductal orifice under magnification, by using the breast aspirator and/or by gently squeezing on the nipple to yield discharge. Use of an incandescent lamp to warm the nipple may help relax the sphincter, thus making cannulation of the duct easier. […] Prepare the nipple and areola with a suitable disinfectant and perform nipple field block as needed. […] Open the catheter package. For intraductal administration of anesthetic, attach anesthetic syringe to inflow (i.e., lower) port and prime the tubing until fluid is expressed through the catheter body and outflow port; leave the syringe attached. […] Ensure that approximately 1 cm of the guidewire protrudes from the catheter tip. Under magnification assistance, if necessary, introduce the pre-seated guidewire/catheter unit into the desired ductal orifice to confirm the location and orientation of the duct. Advance the catheter gradually until the catheter is seated; remove the wire completely. […] Crimp the outflow tubing to prevent return of the anesthetic into the inflow tube. Administer approximately 1 cc of anesthetic through the inflow port (i.e., lower port). Administer more anesthetic as indicated. Disconnect the syringe and set aside for later use. Twist the plunger of a sterile 10 cc syringe to free the seal and attach the syringe to the outflow port. […] Connect saline filled syringe to the inflow (i.e., lower) port. The catheter is now ready for use. […] When Performing saline ductal lavage (i.e. fluid infusion and return): Crimp the outflow tubing to prevent early return into the outflow syringe. Using a 10 cc syringe filled with saline, gradually infuse saline in 0.5 cc increments, or until there is slight resistance or some discomfort (typically 2-3 mLs). Release the crimp on the outflow tubing. Massage the breast towards the nipple with both hands for 30 seconds, especially over the infused duct, taking care not to dislodge the catheter. Cloudy fluid and/or small air bubbles may collect in the catheter body, indicating fluid flow. Crimp the inflow tubing and apply suction to the outflow tubing. […]

pain upon intraductal administration of anesthetic (in some cases, particularly practitioner RP): very low
post procedure notes (patient feedback a day to two weeks after procedure, intraductal lidocaine only): pain
bruising (practitioner PS, routine subcutaneous administration in a field block): highest amount of bruising
Compound: CCN(CC)CC(=O)Nc1c(C)cccc1C [lidocaine]
lavage pain, intraductal administration compared to subcutaneous injection of anesthetic (conclusion drawn from Table I): no greater
